These results are taken from patent US9206162B2, “Triazole compounds that modulate Hsp90 activity” (Synta Pharmaceuticals Corp., priority 2006, dated 2015).

In one assay the test system is Hsp90. In words: Degradation of Hsp90 client proteins, Method 2: IC50 for Her2 degradation / inhibition of Hsp90 (MV-4-11 cell survival, Cell Counting Kit-8). The class given is cell-based, human. The following applies: Table 9, MV-4-11 cells, 72 hours, read-out: IC50 Range. In general terms: Tetrazolium assays rely on reduction of a dye to a coloured formazan, in cell work by metabolically active cells.

A further assay relates to Her2. In words: Degradation of Her2 in BT-474 cells, Method 1 (Western blot). The class given is cell-based, human. Conditions: 0.5 μM, overnight. Here is the method: A. Cells and Cell Culture Human high-Her2 breast carcinoma BT474 (HTB-20), SK-BR-3 (HTB-30) and MCF-7 breast carcinoma (HTB-22) from American Type Culture Collection, VA, USA were grown in Dulbecco's modified Eagle's medium with 4 mM L-glutamine and antibiotics ([…] penicillin and 100 ug/ml streptomycine; GibcoBRL). To obtain exponential cell growth, cells were trypsinized, counted and seeded at a cell density of 0.5×10^6 cells/ml regularly, every 3 days. All experiments were performed on day 1 after cell passage. B. Degradation of her2 in Cells after Treatment with a Compound of the Invention
BT-474 cells are treated with 0.5 μM, 2 μM, or 5 μM of 17AAG (a positive control) or 0.5 μM, 2 μM, or 5 μM of a compound of the invention overnight in DMEM medium. After treatment, each cytoplasmic sample is prepared from 1×10^6 cells by incubation of cell lysis buffer (#9803, cell Signaling Technology) on ice for 10 minutes. The resulting supernatant used as the cytosol fractions is dissolved with sample buffer for SDS-PAGE and run on a SDS-PAGE gel, blotted onto a nitrocellulose membrane by using semi-dry transfer. Non-specific binding to nitrocellulose is blocked with 5% skim milk in TBS with 0.5% Tween at room temperature for 1 hour, then probed with anti-Her2/ErB2 mAb (rabbit IgG, #2242, Cell Signaling) and anti-Tubulin (T9026, Sigma) as housekeeping control protein. […]
On the technique in general: In western blotting, separated proteins are transferred to a membrane and probed.

In the case of `COCCN(C)c1ccc(-n2c(O)nnc2-c2cc(C(C)C)c(O)cc2O)c[n+]1[O-]` [Compound 3d], the IC50 (usually the concentration needed to halve the response being measured) with Hsp90 is 180 nM. As to `C=CCNC1=C2C[C@@H](C)C[C@H](OC)[C@H](O)[C@@H](C)/C=C(\C)[C@H](OC(N)=O)[C@@H](OC)/C=C\C=C(/C)C(=O)NC(=CC1=O)C2=O` [Compound 17AAG, 17-allylamino-17-demethoxygeldanamycin], the “degradation of Her2” value in the assay on Her2 is “partial degradation”.
